Patent publication US5281613A, “Heterocyclic compounds” (Imperial Chemical Industries PLC, priority 1991, dated 1994)

Columns and labels:
[1] = test system: angiotensin II-induced pressor responses; assay: Test C: antagonism of angiotensin II-induced pressor responses in rats; type: in vivo; conditions: iv, rat, i.v. administration
Excerpt: The antagonism of one or more of the physiological actions of AII and, in particular, the antagonism of the interaction of AII with the receptors which mediate its effects on a target tissue, may be assessed using one or more of the following, routine laboratory procedures: Test C This in vivo test involves using terminally-anaesthetised or conscious rats in which an arterial catheter has been implanted under anaesthesia for the measurement of changes in blood pressure. The AII antagonistic effects of the test compound following oral or parenteral administration, are assessed against angiotensin II-induced pressor responses. To ensure that the effect is specific, the effect of the test compound on vasopressin-induced pressor responses may also be determined in the same preparation.

[2] = biological target: T1, AII receptors (guinea pig adrenal gland cell surface membrane fraction) (Cavia porcellus, UniProt Q9WV26); assay: Test A: in vitro displacement of radiolabelled AII binding to guinea pig adrenal gland cell surface membranes; conditions: read-out: IC50 (concentration for 50% displacement of radiolabelled AII binding)
T1 construct: from tissue; host or cells: guinea pig adrenal gland, cell surface membrane fraction
T1 sequence (Q9WV26 1-359): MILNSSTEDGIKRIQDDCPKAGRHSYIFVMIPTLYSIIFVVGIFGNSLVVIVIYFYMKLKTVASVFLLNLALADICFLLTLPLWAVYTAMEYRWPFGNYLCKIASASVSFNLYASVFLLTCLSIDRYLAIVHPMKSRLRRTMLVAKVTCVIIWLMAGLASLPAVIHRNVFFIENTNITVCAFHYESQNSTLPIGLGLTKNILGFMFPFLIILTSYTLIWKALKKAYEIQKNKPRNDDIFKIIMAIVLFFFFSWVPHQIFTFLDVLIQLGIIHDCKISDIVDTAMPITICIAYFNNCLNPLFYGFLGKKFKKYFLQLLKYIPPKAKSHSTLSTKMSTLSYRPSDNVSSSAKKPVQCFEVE
Protocol: The antagonism of one or more of the physiological actions of AII and, in particular, the antagonism of the interaction of AII with the receptors which mediate its effects on a target tissue, may be assessed using one or more of the following, routine laboratory procedures:
This in vitro procedure involves the incubation of the test compound initially at a concentration of 100 micromolar (or less) in a buffered mixture containing fixed concentrations of radiolabelled AII and a cell surface membrane fraction prepared from a suitable angiotensin target tissue. In this test, the source of cell surface membranes is the guinea pig adrenal gland which is well known to respond to AII. Interaction of the radiolabelled AII with its receptors (assessed as radiolabel bound to the particlate membrane fraction following removal of unbound radiolabel by a rapid filtration procedure such as is standard in such studies) is antagonized by compounds which also bind to the membrane receptor sites and the degree of antagonism (observed in the test as displacement of membrane-bound radioactivity) is determined readily by comparing the receptor-bound radioactivity in the presence of the test compound at the specified test concentration with a control value determined in the absence of the test compound. […]

IC50 [2]: 30 nM
SMILES: CCc1cc(OCc2ccc3oc(-c4ccccc4-c4nnn[nH]4)c(Br)c3c2)c2c(n1)CCCC2.Cl [Example 8, 4-[(3-bromo-2-(2-(1H-tetrazol-5-yl)phenyl)benzofuran-5-yl)methoxy]-2-ethyl-5,6,7,8-tetrahydroquinoline hydrochloride]
ED50 [1]: 8.2 mg/kg
